Patent publication US12599672B2, “KRAS proteolysis targeting chimeras” (PAQ Therapeutics Inc., priority 2023, dated 2026)

Key:
Format in all cases: cell-based
KRAS G12D = molecular target: T1, KRAS G12D (Homo sapiens, UniProt P01116, G12D); assay: KRAS G12D HiBit assay; conditions: AsPc-1-KRAS (G12D)-HiBit-KI cell, compound treatment for 24 hours; for DC50: absolute DC50
T1 construct: AsPc-1-KRAS (G12D)-HiBit-KI cell (Pharmaron); host or cells: AsPc-1-KRAS (G12D)-HiBit-KI cells (HiBiT knock-in at the endogenous KRAS locus)
In short: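 HiBiT luminescence, detected by adding lytic buffer, substrate and LgBiT protein, served as the KRAS G12D read-out. Compounds, serially diluted 3-fold over 10 points from 0.3 mM DMSO stock, were on cells for 24 h; percent inhibition normalized to cells given 0.1% DMSO only.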

KRAS = molecular target: T2, KRAS (Homo sapiens, UniProt P01116); assay: KRASamp MSD assay; conditions: KE39 (KRAS amplified) cells, treated with test compounds for 24 hr, MSD readout of KRAS degradation
T2 construct: endogenous in cells; host or cells: KE39 (KRAS amplified) cells
Description: KE39 (KRAS amplified) cells were cultured in RPMI 1640 medium (Gibco, 11875093), seeded into 96 well plate and treated with test compounds for 24 hr. The cells were washed with PBS and lysed in plate for 1 hr at 4° C. with agitation in RIPA buffer (Cat No. BP-115D) supplemented with protease and phosphatase inhibitor cocktail. The lysates were loaded into MSD plate coated with KRAS capture antibody (LSBio, C175665, 1:1000) for 1 h at RT with agitation. The plate was then washed three times with TBST and incubated with KRAS detection antibody (Abcam, Ab275876. 1:2000) for 1 h at RT. After washing three times with TBST, the plate was incubated with secondary detection antibody GAR (1:500) for 1 hr at RT followed with 3×TBST washing. 2×MSD reading buffer was added into individual wells and the plate was finally read by MSD reader (MSD, SQ 120 MM). The recombinant WT KRAS protein was used for standard curve generation and protein quantification. The degradation activity was calculated using the following formula: […]
DC50 was calculated by fitting the curve using GraphPad Prism v8.0.2 (analysis 263): […]

KRAS G12V = molecular target: T3, KRAS G12V (Homo sapiens, UniProt P01116, G12V); assay: KRAS G12V HiBit assay; conditions: SW620-KRAS (G12V)-HiBit-KI cells, compound treatment for 24 hours, class symbols
T3 construct: SW620-KRAS (G12V)-HiBit-KI cell (Pharmaron); host or cells: SW620-KRAS (G12V)-HiBit-KI cells (HiBiT knock-in at the endogenous KRAS locus)
In short: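 Luminescence from lytic Nano-Glo HiBiT detection with LgBiT read KRAS G12V levels after 24 h compound exposure. Dilutions were 10-point, 3-fold, from a 0.3 mM DMSO stock. Degradation activity was normalised to cells given 0.1% DMSO alone.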

T1 sequence (P01116 1-188 isoform P01116-2 G12D): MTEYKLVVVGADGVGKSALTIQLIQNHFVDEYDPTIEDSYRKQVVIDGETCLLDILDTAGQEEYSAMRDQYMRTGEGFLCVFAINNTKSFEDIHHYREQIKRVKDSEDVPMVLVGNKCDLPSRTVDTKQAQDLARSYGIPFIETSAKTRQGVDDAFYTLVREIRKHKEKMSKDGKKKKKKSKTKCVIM
T2 sequence (P01116 1-188 isoform P01116-2): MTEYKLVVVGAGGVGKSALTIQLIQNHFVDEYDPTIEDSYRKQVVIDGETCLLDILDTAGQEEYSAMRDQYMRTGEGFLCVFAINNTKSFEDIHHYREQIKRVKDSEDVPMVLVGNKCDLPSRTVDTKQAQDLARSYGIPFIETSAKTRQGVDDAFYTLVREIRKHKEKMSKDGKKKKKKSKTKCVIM
T3 sequence (P01116 1-188 isoform P01116-2 G12V): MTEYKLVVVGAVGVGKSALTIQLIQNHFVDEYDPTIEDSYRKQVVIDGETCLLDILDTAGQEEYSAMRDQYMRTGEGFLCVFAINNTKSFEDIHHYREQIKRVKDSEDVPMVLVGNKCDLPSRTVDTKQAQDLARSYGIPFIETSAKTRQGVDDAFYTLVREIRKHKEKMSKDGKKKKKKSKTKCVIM

Row | SMILES | DC50 (KRAS G12D; class symbols) [nM] | Dmax (KRAS G12D; class symbols) [%] | DC50 (KRAS) [nM] | DC50 (KRAS G12V) [nM] | DC50 (KRAS G12D; numeric bounds given in place of class symbols) [nM]
1 | C#Cc1c(F)ccc2cc(O)cc(-c3ncc4c(N5CCCC(C#N)CC5)nc(OC[C@@]56CCCN5[C@H](COC(=O)N5CCC(CN7CCC(c8ccc9c(c8)n(C)c(=O)n9C8CCC(=O)NC8=O)CC7)CC5)CC6)nc4c3F)c12 (stereo partly drawn) [Compound 110, ((3S,7aS)-7a-(((4-(4-Cyanoazepan-1-yl)-7-(8-ethynyl-7-fluoro-3-hydroxynaphthalen-1-yl)-8-fluoropyrido[4,3-d]pyrimidin-2-yl)oxy)methyl)hexahydro-1H-pyrrolizin-3-yl)methyl 4-((4-(1-(2,6-dioxopiperidin-3-yl)-3-methyl-2-oxo-2,3-dihydro-1H-benzo[d]imidazol-5-yl)piperidin-1-yl)methyl) piperidine-1-carboxylate] | < 100 | > 50 | 1 to 10 | < 10 | 
2 | CCc1c(F)ccc2cc(O)cc(-c3ncc4c(N5CCC[C@@](C)(O)C5)nc(OCC56CCCN5[C@@H](COC(=O)N5CCC(CN7CCC(c8ccc9c(c8)n(C)c(=O)n9C8CCC(=O)NC8=O)CC7)CC5)CC6)nc4c3F)c12 (stereo partly drawn) [Compound 121, (cis-7a-(((7-(8-Ethyl-7-fluoro-3-hydroxynaphthalen-1-yl)-8-fluoro-4-((R)-3-hydroxy-3-methylpiperidin-1-yl)pyrido[4,3-d]pyrimidin-2-yl)oxy)methyl)hexahydro-1H-pyrrolizin-3-yl)methyl 4-((4-(1-(2,6-dioxopiperidin-3-yl)-3-methyl-2-oxo-2,3-dihydro-1H-benzo[d]imidazol-5-yl)piperidin-1-yl)methyl) piperidine-1-carboxylate] | < 100 |  | 1 to 10 | < 10 | 
3 | C#Cc1c(F)ccc2cc(O)cc(-c3ncc4c(N5CCCCCC5)nc(OC[C@@]56CCCN5[C@H](COC(=O)N5CCC(CN7CCC(c8ccc9c(c8)n(C)c(=O)n9C8CCC(=O)NC8=O)CC7)CC5)CC6)nc4c3F)c12 (stereo partly drawn) [Compound 123, ((3S,7aS)-7a-(((4-(Azepan-1-yl)-7-(8-ethynyl-7-fluoro-3-hydroxynaphthalen-1-yl)-8-fluoropyrido[4,3-d]pyrimidin-2-yl)oxy)methyl)hexahydro-1H-pyrrolizin-3-yl)methyl4-((4-(1-(2,6-dioxopiperidin-3-yl)-3-methyl-2-oxo-2,3-dihydro-1H-benzo[d]imidazol-5-yl)piperidin-1-yl)methyl) piperidine-1-carboxylate] | < 100 | > 50 | < 1 | < 10 | 
4 | C#Cc1c(F)ccc2cc(O)cc(-c3ncc4c(N5CCCC(F)(F)C5)nc(OC[C@@]56CCCN5[C@H](COC(=O)N5CCC(CN7CCC(c8ccc9c(c8)n(C)c(=O)n9C8CCC(=O)NC8=O)CC7)CC5)CC6)nc4c3F)c12 (stereo partly drawn) [Compound 124, ((35,7aS)-7a-(((4-(3,3-Difluoropiperidin-1-yl)-7-(8-ethynyl-7-fluoro-3-hydroxynaphthalen-1-yl)-8-fluoropyrido[4,3-d]pyrimidin-2-yl)oxy)methyl)hexahydro-1H-pyrrolizin-3-yl)methyl4-((4-(1-(2,6-dioxopiperidin-3-yl)-3-methyl-2-oxo-2,3-dihydro-1H-benzo[d]imidazol-5-yl)piperidin-1-yl)methyl) piperidine-1-carboxylate] | < 100 | > 50 | < 1 | < 10 | 
5 | C#Cc1c(F)ccc2cc(O)cc(-c3ncc4c(N5CCOCC5)nc(OC[C@@]56CCCN5[C@H](COC(=O)N5CCC(CN7CCC(c8ccc9c(c8)n(C)c(=O)n9C8CCC(=O)NC8=O)CC7)CC5)CC6)nc4c3F)c12 (stereo partly drawn) [Compound 125, ((3S,7aS)-7A-(((7-(8-Ethynyl-7-fluoro-3-hydroxynaphthalen-1-yl)-8-fluoro-4-morpholinopyrido[4,3-d]pyrimidin-2-yl)oxy)methyl)hexahydro-1H-pyrrolizin-3-yl)methyl 4-((4-(1-(2,6-dioxopiperidin-3-yl)-3-methyl-2-oxo-2,3-dihydro-1H-benzo[d]imidazol-5-yl)piperidin-1-yl)methyl) piperidine-1-carboxylate] | < 100 | > 50 | < 1 | < 10 | 
6 | C#Cc1c(F)ccc2cc(O)cc(-c3ncc4c(N5CCC[C@@](C)(O)C5)nc(OC[C@]56CCCN5[C@@H](COC(=O)N5CCC(CN7CCC(c8ccc9c(c8)n(C)c(=O)n9C8CCC(=O)NC8=O)CC7)CC5)CC6)nc4c3F)c12 (stereo partly drawn) [Compound 126, ((3R,7aR)-7a-(((7-(8-Ethynyl-7-fluoro-3-hydroxynaphthalen-1-yl)-8-fluoro-4-((R)-3-hydroxy-3-methylpiperidin-1-yl)pyrido[4,3-d]pyrimidin-2-yl)oxy)methyl)hexahydro-1H-pyrrolizin-3-yl)methyl 4-((4-(1-(2,6-dioxopiperidin-3-yl)-3-methyl-2-oxo-2,3-dihydro-1H-benzo[d]imidazol-5-yl)piperidin-1-yl)methyl) piperidine-1-carboxylate] |  |  | < 1 | < 10 | > 38.3

Second part, the compound after the results:

Row | DC50 (KRAS G12D; class symbols) [nM] | Dmax (KRAS G12D; class symbols) [%] | DC50 (KRAS) [nM] | DC50 (KRAS G12V) [nM] | DC50 (KRAS G12D; numeric bounds given in place of class symbols) [nM] | SMILES
7 | < 100 |  | < 1 | < 10 |  | CCc1c(F)ccc2cc(O)cc(-c3ncc4c(N5CCOCC(C)(O)C5)nc(OC[C@@]56CCCN5[C@H](COC(=O)N5CCC(CN7CCC(c8ccc9c(c8)n(C)c(=O)n9C8CCC(=O)NC8=O)CC7)CC5)CC6)nc4c3F)c12 (stereo partly drawn) [Compound 118, ((3S,7aS)-7a-(((7-(8-Ethyl-7-fluoro-3-hydroxynaphthalen-1-yl)-8-fluoro-4-(6-hydroxy-6-methyl-1,4-oxazepan-4-yl)pyrido[4,3-d]pyrimidin-2-yl)oxy)methyl)hexahydro-1H-pyrrolizin-3-yl)methyl4-((4-(1-(2,6-dioxopiperidin-3-yl)-3-methyl-2-oxo-2,3-dihydro-1H-benzo[d]imidazol-5-yl)piperidin-1-yl)methyl) piperidine-1-carboxylate]
8 | < 100 |  | < 1 | < 10 |  | CCc1c(F)ccc2cc(O)cc(-c3ncc4c(N5CCC[C@@](C)(O)C5)nc(OC[C@]56CCCN5[C@@H](COC(=O)N5CCC(CN7CCC(c8ccc9c(c8)n(C)c(=O)n9C8CCC(=O)NC8=O)CC7)CC5)CC6)nc4c3F)c12 (stereo partly drawn) [Compound 120, ((3R,7aR)-7a-(((7-(8-Ethyl-7-fluoro-3-hydroxynaphthalen-1-yl)-8-fluoro-4-((R)-3-hydroxyl-3-methylpiperidin-1-yl)pyrido[4,3-d]pyrimidin-2-yl)oxy)methyl)hexahydro-1H-pyrrolizin-3-yl)methyl4-((4-(1-(2,6-dioxopiperidin-3-yl)-3-methyl-2-oxo-2,3-dihydro-1H-benzo[d]imidazol-5-yl)piperidin-1-yl)methyl) piperidine-1-carboxylate]
9 | < 100 | > 50 | < 1 | < 10 |  | C#Cc1c(F)ccc2cc(O)cc(-c3ncc4c(N5CCCCC5)nc(OC[C@@]56CCCN5[C@H](COC(=O)N5CCC(CN7CCC(c8ccc9c(c8)n(C)c(=O)n9C8CCC(=O)NC8=O)CC7)CC5)CC6)nc4c3F)c12 (stereo partly drawn) [Compound 122, ((3S,7aS)-7a-(((7-(8-Ethynyl-7-fluoro-3-hydroxynaphthalen-1-yl)-8-fluoro-4-(piperidin-1-yl)pyrido[4,3-d]pyrimidin-2-yl)oxy)methyl)hexahydro-1H-pyrrolizin-3-yl)methyl4-((4-(1-(2,6-dioxopiperidin-3-yl)-3-methyl-2-oxo-2,3-dihydro-1H-benzo[d]imidazol-5-yl)piperidin-1-yl)methyl) piperidine-1-carboxylate]
